Assay results from PubChem BioAssay (NCI).
Where “and” joins values, the source holds several entries; their conditions need not be identical. Identical values can stand only once.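 Compound exposure: 48 hours, 5 concentrations, 96-well plates. GI50: concentration for 50% inhibition of growth. TGI marks complete inhibition of growth.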

How the values were obtained:
Test in all cases: growth of human tumour cells (NCI), 48 h
CAKI-1 renal = tested on: CAKI-1 renal
OVCAR-5 ovarian = tested on: OVCAR-5 ovarian
U251 CNS = tested on: U251 CNS
UACC-257 melanoma = tested on: UACC-257 melanoma
SK-OV-3 ovarian = tested on: SK-OV-3 ovarian
HL-60(TB) leukemia = tested on: HL-60(TB) leukemia
SF-268 CNS = tested on: SF-268 CNS
HOP-62 NSCLC = tested on: HOP-62 NSCLC
SR leukemia = tested on: SR leukemia
UO-31 renal = tested on: UO-31 renal
TK-10 renal = tested on: TK-10 renal
DMS 114 small cell lung = tested on: DMS 114 small cell lung
MOLT-4 leukemia = tested on: MOLT-4 leukemia
KM12 colon = tested on: KM12 colon
ACHN renal = tested on: ACHN renal
RPMI-8226 leukemia = tested on: RPMI-8226 leukemia
SK-MEL-2 melanoma = tested on: SK-MEL-2 melanoma
MALME-3M melanoma = tested on: MALME-3M melanoma
DU-145 prostate = tested on: DU-145 prostate
UACC-62 melanoma = tested on: UACC-62 melanoma
HCT-116 colon = tested on: HCT-116 colon
BT-549 breast = tested on: BT-549 breast
SK-MEL-5 melanoma = tested on: SK-MEL-5 melanoma
HT29 colon = tested on: HT29 colon
NCI-H522 lung = tested on: NCI-H522 lung
SW-620 colon = tested on: SW-620 colon
OVCAR-3 ovarian = tested on: OVCAR-3 ovarian
PC-3 prostate = tested on: PC-3 prostate
RXF 393 renal = tested on: RXF 393 renal
HCT-15 colon = tested on: HCT-15 colon
T-47D breast = tested on: T-47D breast
EKVX NSCLC = tested on: EKVX NSCLC
K-562 leukemia = tested on: K-562 leukemia
MDA-N = tested on: MDA-N
HS 578T breast = tested on: HS 578T breast
SK-MEL-28 melanoma = tested on: SK-MEL-28 melanoma
A549 NSCLC = tested on: A549 NSCLC
IGROV1 ovarian = tested on: IGROV1 ovarian
SNB-75 CNS = tested on: SNB-75 CNS
OVCAR-4 ovarian = tested on: OVCAR-4 ovarian
NCI-H226 lung = tested on: NCI-H226 lung
MDA-MB-435 = tested on: MDA-MB-435
OVCAR-8 ovarian = tested on: OVCAR-8 ovarian
LOX IMVI melanoma = tested on: LOX IMVI melanoma
HOP-92 NSCLC = tested on: HOP-92 NSCLC
SF-539 CNS = tested on: SF-539 CNS
MDA-MB-231 breast = tested on: MDA-MB-231 breast
M14 melanoma = tested on: M14 melanoma
SN12C renal = tested on: SN12C renal
NCI/ADR-RES ovarian = tested on: NCI/ADR-RES ovarian
MCF7 breast = tested on: MCF7 breast
SNB-19 CNS = tested on: SNB-19 CNS
COLO 205 colon = tested on: COLO 205 colon
NCI-H23 lung = tested on: NCI-H23 lung
CCRF-CEM leukemia = tested on: CCRF-CEM leukemia
A498 renal = tested on: A498 renal
HCC-2998 colon = tested on: HCC-2998 colon
SF-295 CNS = tested on: SF-295 CNS
786-0 renal = tested on: 786-0 renal
NCI-H460 lung = tested on: NCI-H460 lung

CCCC(=O)OC[n+]1ccc2c(C)c3[nH]c4ccc(OC)cc4c3c(C)c2c1
TGI (CAKI-1 renal): 13.6 µM
TGI (OVCAR-5 ovarian): 2.31 µM
TGI (U251 CNS): > 100 µM
TGI (UACC-257 melanoma): > 100 µM
TGI (SK-OV-3 ovarian): 14.9 µM
TGI (HL-60(TB) leukemia): 1.82 µM
TGI (SF-268 CNS): > 100 µM
TGI (HOP-62 NSCLC): 3.08 µM
TGI (SR leukemia): 2.89 µM
TGI (UO-31 renal): 6.38 µM
TGI (TK-10 renal): 20.1 µM
TGI (DMS 114 small cell lung): 3.78 µM
TGI (MOLT-4 leukemia): 0.322 µM
TGI (KM12 colon): 1.77 µM
TGI (ACHN renal): 7.47 µM
TGI (RPMI-8226 leukemia): 0.54 µM
TGI (SK-MEL-2 melanoma): 7.12 µM
TGI (MALME-3M melanoma): > 100 µM

Nc1ccccc1NC(=O)c1ccc(CNC(=O)OCc2cccnc2)cc1
GI50 (DU-145 prostate): 2.26 µM
TGI (DU-145 prostate): > 100 µM
GI50 (UACC-62 melanoma): 0.278 µM
TGI (UACC-62 melanoma): 1.77 µM and 4.81 µM
GI50 (HCT-116 colon): 0.798 µM
TGI (HCT-116 colon): > 92 µM and 11.6 µM
GI50 (BT-549 breast): 4.14 µM
TGI (BT-549 breast): > 100 µM
GI50 (CAKI-1 renal): 1.17 µM
TGI (CAKI-1 renal): 14.1 µM and > 59.5 µM
GI50 (OVCAR-5 ovarian): 1.05 µM
GI50 (U251 CNS): 2.03 µM
TGI (U251 CNS): > 39.5 µM and 5.74 µM
GI50 (SK-MEL-5 melanoma): 0.743 µM
TGI (SK-MEL-5 melanoma): 2.31 µM and 2.3 µM
GI50 (HT29 colon): 1.04 µM
GI50 (NCI-H522 lung): 0.698 µM
TGI (NCI-H522 lung): 7.41 µM and > 27.9 µM
GI50 (SW-620 colon): 1.3 µM
TGI (SW-620 colon): 34.5 µM and > 100 µM
TGI (UACC-257 melanoma): > 29 µM
GI50 (OVCAR-3 ovarian): 1.74 µM
TGI (OVCAR-3 ovarian): 11.5 µM and 14.8 µM
TGI (PC-3 prostate): > 100 µM
GI50 (RXF 393 renal): 1.49 µM
TGI (RXF 393 renal): 6.31 µM and 27.6 µM
GI50 (HCT-15 colon): 8.47 µM
TGI (HCT-15 colon): > 100 µM
GI50 (T-47D breast): 0.462 µM
TGI (T-47D breast): > 100 µM
GI50 (EKVX NSCLC): 3.26 µM
TGI (EKVX NSCLC): > 100 µM
GI50 (SK-OV-3 ovarian): 2.75 µM
TGI (SK-OV-3 ovarian): > 100 µM
GI50 (K-562 leukemia): 0.505 µM
TGI (K-562 leukemia): > 100 µM
GI50 (HL-60(TB) leukemia): 0.847 µM
TGI (HL-60(TB) leukemia): 26.6 µM and > 22.5 µM
TGI (MDA-N): 12.4 µM
GI50 (HS 578T breast): 2.33 µM
TGI (HS 578T breast): > 100 µM
GI50 (SK-MEL-28 melanoma): 0.663 µM
TGI (SK-MEL-28 melanoma): 5.94 µM and > 45.4 µM
GI50 (SF-268 CNS): 1.86 µM
TGI (SF-268 CNS): 25 µM and > 74.7 µM
TGI (A549 NSCLC): > 100 µM
GI50 (IGROV1 ovarian): 3.95 µM
TGI (IGROV1 ovarian): > 61.6 µM and 36.2 µM
TGI (HOP-62 NSCLC): > 90 µM
TGI (SNB-75 CNS): > 100 µM
GI50 (OVCAR-4 ovarian): 1.31 µM
TGI (OVCAR-4 ovarian): > 100 µM
GI50 (NCI-H226 lung): 0.604 µM
TGI (NCI-H226 lung): 16.9 µM and 5.73 µM
GI50 (MDA-MB-435): 0.956 µM
TGI (MDA-MB-435): 14.8 µM and > 33.1 µM
TGI (OVCAR-8 ovarian): > 100 µM
GI50 (SR leukemia): 0.533 µM
TGI (SR leukemia): > 100 µM
GI50 (UO-31 renal): 1.17 µM
TGI (UO-31 renal): > 100 µM and 20.3 µM
GI50 (LOX IMVI melanoma): 1.06 µM
TGI (LOX IMVI melanoma): 8.67 µM and 5.94 µM
GI50 (TK-10 renal): 0.289 µM
TGI (TK-10 renal): 38.8 µM and > 100 µM
GI50 (MOLT-4 leukemia): 1.93 µM
TGI (MOLT-4 leukemia): > 85 µM
GI50 (HOP-92 NSCLC): 0.0382 µM
GI50 (SF-539 CNS): 3.19 µM
TGI (SF-539 CNS): 78.7 µM and > 52.1 µM
GI50 (MDA-MB-231 breast): 13.8 µM
TGI (MDA-MB-231 breast): > 100 µM and 25.6 µM
GI50 (M14 melanoma): 2.35 µM
TGI (M14 melanoma): > 100 µM and 15.5 µM
GI50 (SN12C renal): 9.39 µM
TGI (SN12C renal): > 100 µM
GI50 (KM12 colon): 4.31 µM
TGI (KM12 colon): > 100 µM
GI50 (NCI/ADR-RES ovarian): 2.38 µM
TGI (NCI/ADR-RES ovarian): > 67.4 µM
GI50 (MCF7 breast): 0.637 µM
TGI (MCF7 breast): > 100 µM
GI50 (SNB-19 CNS): 6.33 µM
TGI (SNB-19 CNS): > 100 µM and 75.2 µM
GI50 (COLO 205 colon): 2.01 µM
TGI (COLO 205 colon): 8.37 µM and 3.03 µM
GI50 (ACHN renal): 2.34 µM
TGI (ACHN renal): > 77.7 µM and 25.7 µM
GI50 (NCI-H23 lung): 3.23 µM
TGI (NCI-H23 lung): > 89.4 µM and 14.9 µM
GI50 (RPMI-8226 leukemia): 0.895 µM
TGI (RPMI-8226 leukemia): > 29.5 µM and 4.54 µM
GI50 (CCRF-CEM leukemia): 1.94 µM
TGI (CCRF-CEM leukemia): > 100 µM and 21.7 µM
GI50 (A498 renal): 0.361 µM
TGI (A498 renal): 2.98 µM and 4.14 µM
TGI (HCC-2998 colon): 5.44 µM and 9.79 µM
GI50 (SF-295 CNS): 2.57 µM
TGI (SF-295 CNS): > 39.8 µM and 16.6 µM
GI50 (786-0 renal): 4.96 µM
TGI (786-0 renal): > 90.9 µM
GI50 (SK-MEL-2 melanoma): 1.1 µM
TGI (SK-MEL-2 melanoma): 15 µM and 3.2 µM
GI50 (NCI-H460 lung): 0.83 µM
TGI (NCI-H460 lung): > 100 µM
GI50 (MALME-3M melanoma): 0.577 µM and 0.267 µM
TGI (MALME-3M melanoma): > 23.6 µM and 2.39 µM
